According to US8507439B2, “Neuroprotective and neurorestorative method and compositions” (priority 2005, dated 2013):
Residues, ends and D or L forms follow the SMILES beside them. No end group written: not given here. ξ: configuration not given here. *: point of attachment. Lip = lipoic acid (N-terminal), O=C(CCCC[C@@H]1CCSS1)*; Lipoyl(6ξ) = O=C(CCCCC1CCSS1)*

What was measured:
N27 dopaminergic cells = test: Survival of N27 dopaminergic cells in the presence of 300 μM MPP+ neurotoxic agent; assay type: cell-based, rat
[1] = system: SH-SY5Y human neuroblastoma cells; test: Protection of SH-SY5Y neuroblastoma cells from Yankner peptide (b/A4), LDH content of remaining cells; assay type: cell-based; settings: 20 μM Yankner peptide alone
Experimental: A characteristic constituent of Alzheimer's Disease (AD) is the formation of plaques from the 39-43 amino acid long peptide derived from amyloid protein (Selkoe, D. TINS (1993) 16: 403-409). This molecule (b/A4) can be toxic to mammalian nerve cells. […] Yankner et al. (Science (1990) 250: 279-282) has developed this property in a culture method as an AD assay procedure.
Differentiated cultures of SH-SY5Y Human neuroblastoma cells were grown to a stage where the cells formed a network of neurites. […] At day 3, after removal of the supernatant and the debris from dead cells by 3 washes with saline, the cells were then lysed and their LDH content was assayed for cell survival by measuring the LDH present in the remaining cells. The results were compared to LDH present in untreated controls, that were incubated for 3 days with no peptide additives (Table 7). The assay assumes that the LDH content of healthy cells remains constant and can be used as an index of living cells. The experiments using anoxia in our previous work were in agreement with this assumption.
This experiment was performed in the method described above for Example 6, Experiment 1, except that the cells were incubated for 4 days instead of 3 to enhance the degenerative effect of the Yankner peptide. […]

SHSY cells [2] = assay type: cell-based, human; settings: 20 μM Yankner peptide alone
Experimental: Aliquots of 3×10^5 SHSY cells were plated in each well of a 24-well microtiter plate in 1 ml of medium containing no peptides (Control=Ctrl), 20 μM Yankner peptide (Yankner), or 20 μM Yankner peptide+75 μM of DQ (SEQ ID NO:2) (Yankner+BTX). Plates were incubated at 37° C. in a 5% CO2 incubator for 3 days, then each well was washed twice with 1×PBS to remove loosely bound cells. The number of remaining cells per ml was determined by microscopy. […] Error bars denote one standard deviation. […] BTX was DQ (SEQ ID NO:2) in this experiment.

SHSY cells [3] = test: LDH levels in residual surviving SHSY cells after Yankner peptide; assay type: cell-based, human; settings: Yankner peptide alone
Experimental: In a tissue culture model for Alzheimer's disease, treatment with the Yankner peptide (amyloid fragment) causes cell death within 3 days. […] By studying the time course of cell death in this culture model for Alzheimer's disease, it was determined that about 60% of the cells die within 24 hrs. When the neuroprotective/neurorestorative peptide of the invention was added to the cells at the 24 hour time point (e.g., 24 hours after the cells were contacted with the Yankner peptide), over 40% of the injured neurons that were destined to die on day 3 were rescued.
Aliquots of 3×10^5 SHSY cells were plated in each well of a 24-well microtiter plate in 1 ml of medium containing no peptides (control=Ctrl), 20 μM Yankner peptide (Yankner), 20 μM Yankner peptide+75 μM DQ peptide (SEQ ID NO:2) added at time of plating (Yankner+BTX Simultaneous), or 20 μM Yankner+75 μM BTX-639 added 24 hr post plating (Yankner+BTX 24 Hr Post). Plates were incubated at 37° C. in a 5% CO2 incubator for 3 days, then each well was washed twice with 1×PBS to remove loosely bound cells. Whole cell lysates were prepared from the remaining attached (viable) cells, and Lactate dehydrogenase (LDH) activity measured as described in methods. The results are illustrated in FIG. 2, in which each histobar represents the mean of 11 independent trials. Error bars denote one standard deviation. […]

[4] = system: noradrenergic neurons in the striatum; test: Survival of noradrenergic neurons in the MPTP mouse model for Parkinson's disease; assay type: in vivo
Excerpt: Tests were done in the MPTP mouse model for Parkinson's disease.

[5] = system: primary rat cortical cultures; test: Oxygen-glucose deprivation (anoxia) of primary rat cortical cultures, LDH release into extracellular medium; assay type: cell-based
Experimental: Peptides of the invention have been examined for neuroprotective activity in primary rat cortical cultures. […] It rescued 90-100% of the neurons that were exposed to a 3 hour oxygen-glucose deprivation (OGD).
For the tests, primary mixed neuron-glia rat cortical cultures were grown to 80-95% confluence, as previously described (Shashoua, V. E. et al., Brain Res. (2004) 1024(1-2):34-43). Their neurons were grown over a layer of glia cells and formed a network of processes. Such cultures, after a 5× wash in oxygen-free (air displaced by argon) Hanks Balanced Salt Solution (HBSS) (Shashoua, V. E. et al., Brain Res. (2004) 1024(1-2):34-43) buffer, which contained no glucose, serum, and growth factors, were transferred for 3 hrs into the Form a Scientific Anaerobic Chamber (Thermo Forma, Marietta, Ohio) (Goldberg, M. P. and Choi, D. W. J Neurosci. (1993) 13(8):3510-3524) in an atmosphere of N2, CO2 and H2 (85%, 5%, and 10%). After exposure to oxygen-glucose deprivation (OGD) the neurons, retract their processes and generate vacuoles in their perikarya. […] Large increases (about 250%) in the release of lactic acid dehydrogenase (LDH, a marker of cell injury) into the extra-cellular medium occurred. For the test of glucose-oxygen deprivation on the release of lactic acid dehydrogenase as a function of time by primary rat cortical cultures, the LDH assay of extracellular fluid (1 ml aliquots) for cultures from cells were incubated for 24 hours under normoxia conditions and were compared with cells exposed up to 4 hours of anoxia in HBSS medium followed by normoxia medium for a total period of 24 hours. LDH was measured as absorbance at 490 nm, n=6 per time point (Shashoua, V. E. et al., Brain Res. (2004) 1024(1-2):34-43) (see Table 2). Assays and detection were performed according to manufacturer's instructions using a Promega Cyto Tox 96, a nonradioactive cytotoxicity assay kit (Promega, Madison, Wis.).
For these experiments there were n=6 per assay, and a 3 hour treatment of anoxia was followed by 21 hours of normoxia reperfusion. SEQ ID NO:1 was added at 1 hour post initiation of anoxia and was also present during the 21 hours of reperfusion. […] The results for SEQ ID NO:1 as well as the results for SEQ ID NOs:3 and 4, which are shown in Tables 3 and 4 give results of LDH assay that was done on supernatant of extracellular medium.

[6] = 300 μM MPP+ + 14 μM peptide, n = 8

C[n+]1ccc(-c2ccccc2)cc1 [MPP+, 1-methyl-4-phenylpyridinium, reference compound]
% Rescue after Treatment for 0 hours (N27 dopaminergic cells; 300 μM MPP+ alone): 100 ± 2%
% Rescue after Treatment for 24 hours (N27 dopaminergic cells; 300 μM MPP+ alone): 0 ± 3%
% Rescue after Treatment for 48 hours (N27 dopaminergic cells; 300 μM MPP+ alone): 0 ± 4%

CC[C@H](C)[C@H](NC(=O)[C@H](C)NC(=O)CNC(=O)[C@H](CCCCN)NC(=O)[C@H](CC(N)=O)NC(=O)[C@H](CO)NC(=O)CN)C(=O)N[C@H](C(=O)NCC(=O)N[C@@H](CC(C)C)C(=O)N[C@@H](CCSC)C(=O)O)[C@@H](C)CC [Yankner peptide] (H-GSNKGAIIGLM-OH)
OD 490 nm ([1]; 3 days): 0.568 OD 490 nm
OD 490 nm ([1]; 4 days): 0.127 OD 490 nm
cell death (SHSY cells [2]): 50%
cells that die within 24 hrs (SHSY cells [3]): about 60%

CC(C)[C@H](NC(=O)[C@H](CCC(=O)O)NC(=O)CCCCC1CCSS1)C(=O)N[C@@H](CC(=O)O)C(=O)N[C@@H](CC(=O)O)C(=O)N[C@@H](CC(=O)O)C(=O)N[C@@H](CCC(N)=O)C(=O)O (stereo partly drawn) [[Lip]-EVDDDQ] ({Lipoyl(6ξ)}-EVDDDQ-OH; C-terminus assumed)
passage through the Blood-Brain Barrier (in words) ([4]; concluded from the in vivo effect): can get through the Blood-Brain Barrier

VFTPPS
reversal of the effects of anoxia / neuroprotection from anoxia (in words) [5]: reverse effects of anoxia

[Ac]-QDDDVE (Ac-QDDDVE)
% Rescue per Treatment time 0 hours (N27 dopaminergic cells; 42 μM peptide + 300 μM MPP+): 100 ± 2%
% Rescue per Treatment time 24 hours (N27 dopaminergic cells; 42 μM peptide + 300 μM MPP+): 42 ± 4%
% Rescue per Treatment time 48 hours (N27 dopaminergic cells; 42 μM peptide + 300 μM MPP+): 27 ± 3%
LDH (A 490 nm) ([5]; Table 4, anoxia + 1 ng/ml): 0.33 ± 0.02 A 490 nm
LDH Released % of Normoxia ([5]; Table 4, anoxia + 1 ng/ml): 100 ± 6 % of Normoxia
LDH (A 490 nm) ([5]; Table 4, anoxia + 10 ng/ml): 0.22 ± 0.04 A 490 nm
LDH Released % of Normoxia ([5]; Table 4, anoxia + 10 ng/ml): 67 ± 12 % of Normoxia
LDH (A 490 nm) ([5]; Table 4, anoxia + 100 ng/ml): 0.16 ± 0.05 A 490 nm
LDH Released % of Normoxia ([5]; Table 4, anoxia + 100 ng/ml): 48 ± 15 % of Normoxia

CN1CC=C(c2ccccc2)CC1 [MPTP, 1-methyl-4-phenyl-1,2,3,6 tetrahydropyridine, reference compound]
neurons that survive ([4]; 4 days following an IP injection 30 mg/Kg of MPTP, no peptide): 12.5%

[Lip]-VFTPPS (Lip-VFTPPS) [VFTPPS conjugated to lipoic acid at the N-terminal amino acid]
reversal of the effects of anoxia / neuroprotection from anoxia (in words) [5]: promote neuroprotection from anoxia
LDH (A 490 nm) ([5]; Table 4, anoxia + 10 ng/ml): 0.56 ± 0.08 A 490 nm
LDH Released % of Normoxia ([5]; Table 4, anoxia + 10 ng/ml): 169 ± 24 % of Normoxia
LDH (A 490 nm) ([5]; Table 4, anoxia + 100 ng/ml): 0.37 ± 0.04 A 490 nm
LDH Released % of Normoxia ([5]; Table 4, anoxia + 100 ng/ml): 112 ± 12 % of Normoxia

QDDDVE
reversal of the effects of anoxia / neuroprotection from anoxia (in words) [5]: reverse effects of anoxia

EVDDDQ [SEQ ID NO: 1]
% Rescue after Treatment for 24 hours (N27 dopaminergic cells; 300 μM MPP+ + 14 μM (10 μg/ml) peptide, n = 8): 82 ± 2%
% Rescue after Treatment for 24 hours (N27 dopaminergic cells; 300 μM MPP+ + 14 μM (10 μg/ml) peptide, n = 8, listed as SEQ ID NO:1): 82%
% Rescue after Treatment for 0 hours (N27 dopaminergic cells; [6]): 100 ± 2%
% Rescue after Treatment for 48 hours (N27 dopaminergic cells; [6]): 56 ± 4%
reversal of the effects of anoxia / neuroprotection from anoxia (in words) [5]: active in reversing the effects of anoxia
effects of anoxia, cell morphology and LDH release (in words) ([5]; 1 ng/ml up to 10 ng/ml in the media, even after the 3 hr OGD treatment, 21 hours normoxia reperfusion): all the effects of anoxia were reversed and cell morphology and LDH release returned to normal
LDH (A 490 nm) ([5]; Table 3, anoxia + 1 ng/ml): 0.33 ± .02 A 490 nm
LDH Released % of Normoxia ([5]; Table 3, anoxia + 1 ng/ml): 100 % of Normoxia
LDH (A 490 nm) ([5]; Table 3, anoxia + 10 ng/ml): 0.22 ± .03 A 490 nm
LDH Released % of Normoxia ([5]; Table 3, anoxia + 10 ng/ml): 68 % of Normoxia
LDH (A 490 nm) ([5]; Table 3, anoxia + 100 ng/ml): 0.161 ± .04 A 490 nm
LDH Released % of Normoxia ([5]; Table 3, anoxia + 100 ng/ml): 50 % of Normoxia
LDH release compared with normoxia controls (in words) ([5]; high doses): decreased LDH release to lower amounts than those present in normoxia controls
neurons rescued ([5]; neurons exposed to a 3 hour oxygen-glucose deprivation (OGD)): 90-100%
